Experimental findings from US8877707B2, “Inhibitors of HCV NS5A” (Presidio Pharmaceuticals, Inc., priority 2010, dated 2014) are described below.

The test system of this assay is HCV genotype 1b replicon in Huh 7 cells. In words: HCV replicon assay (1b_Huh-Luc/Neo-ET cell line, luciferase readout). Type of assay: cell-based. As to conditions: Hepatitis C virus; Table 1; genotype 1b replicon, Huh 7 cells, 72 h, luciferase; read-out: Inhibition of HCV genotype 1b. Summed up:
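Replicon level was read as luciferase signal after 72 h compound exposure, triplicate wells, starting the day after cells were plated. Cell line: 1b_Huh-Luc/Neo-ET. Values normalised to control as percent, and EC50 fitted with a variable-slope sigmoid; determinations repeated.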
(A replicon is a self-replicating genome or part of one, used to study replication in cells.)

For `COC(=O)N[C@H](C(=O)N1CCC[C@H]1c1nc2ccc(-c3ccc4nc(-c5cnc([C@@H]6CCCN6C(=O)[C@H](NC(=O)OC)c6ccccc6)[nH]5)ccc4c3)cc2[nH]1)C(C)C` [compound 210], the EC50 was less than 1 nM.
`COC(=O)N[C@H](C(=O)N1CCC[C@H]1c1nc2ccc(-c3ccc4nc(-c5cnc([C@@H]6CCCN6C(=O)[C@@H](NC(=O)OC)C6CCOCC6)[nH]5)ccc4c3)cc2[nH]1)C(C)C` [compound 211]: the EC50 was less than 1 nM.
Take `COC(=O)N[C@H](C(=O)N1CCC[C@H]1c1nc2ccc(-c3ccc4cc(-c5cnc([C@@H]6CCCN6C(=O)[C@H](NC(=O)OC)c6ccccc6)[nH]5)ccc4c3)cc2[nH]1)C1CCOCC1` [compound 212]: the EC50 is less than 1 nM.
In the case of `COC(=O)N[C@H](C(=O)N1CCC[C@H]1c1ncc(-c2ccc3cc(-c4ccc5nc([C@@H]6CCCN6C(=O)[C@@H](c6ccccc6)N6CCOCC6)[nH]c5c4)ccc3c2)[nH]1)C(C)C` [compound 213], the EC50 is less than 1 nM.
As for `COC(=O)N[C@H](C(=O)N1CCC[C@H]1c1ncc(-c2ccc3c(-c4ccc5[nH]c([C@@H]6CCCN6C(=O)[C@@H](NC(=O)OC)C(C)C)nc5c4)cccc3c2)[nH]1)C(C)C` [compound 214], the EC50 was in the range of 10 to 999 nM.
Take `COC(=O)N[C@H](C(=O)N1CCC[C@H]1c1nc2ccc(-c3cccc4c(-c5cnc([C@@H]6CCCN6C(=O)[C@@H](NC(=O)OC)C6CCOCC6)[nH]5)cccc34)cc2[nH]1)C(C)C` [compound 215]: the EC50 was less than 1 nM.
Regarding `COC(=O)N[C@H](C(=O)N1CCC[C@H]1c1nc2ccc(-c3cc4ccc(-c5cnc([C@@H]6CCCN6C(=O)[C@@H](NC(=O)OC)C6CCOCC6)[nH]5)cc4cn3)cc2[nH]1)C(C)C` [compound 216], the EC50 is less than 1 nM.
Under `COC(=O)N[C@H](C(=O)N1CCC[C@H]1c1ncc(-c2ccc3cc(-c4ccc5nc([C@@H]6CCCN6C(=O)[C@@H](NC(=O)OC)C6CCOCC6)[nH]c5c4)ncc3c2)[nH]1)C1CCOCC1` [compound 217] stands 1 to 9.9 nM; under `COC(=O)N[C@H](C(=O)N1CCC[C@H]1c1ncc(-c2ccc3cc(-c4ccc5nc([C@@H]6CCCN6C(=O)[C@@H](NC(=O)OC)C6CCCC6)[nH]c5c4)ccc3c2)[nH]1)C1CCCC1` [compound 218], less than 1 nM.
The figure for `COC(=O)N[C@H](C(=O)N1CCC[C@H]1c1ncc(-c2ccc3cc(-c4ccc5nc([C@@H]6CCCN6C(=O)[C@@H](NC(=O)OC)C6CCOCC6)[nH]c5c4)ncc3c2)[nH]1)C(C)C` [compound 219] is less than 1 nM; for `COC(=O)N[C@H](C(=O)N1CCOC[C@H]1c1ncc(-c2ccc3cc(-c4ccc5nc([C@@H]6CCCN6C(=O)[C@@H](NC(=O)OC)C(C)C)[nH]c5c4)ccc3c2)[nH]1)C(C)C` [compound 220] it is less than 1 nM.
The figure for `COC(=O)N[C@H](C(=O)N1CCOC[C@H]1c1ncc(-c2ccc3cc(-c4ccc5nc([C@@H]6CCCN6C(=O)[C@@H](NC(=O)OC)C6CCOCC6)[nH]c5c4)ccc3c2)[nH]1)C(C)C` [compound 221] is less than 1 nM.
For the compound `COC(=O)N[C@H](C(=O)N1CCC[C@H]1c1ncc(-c2ccc3cc(-c4ccc5nc([C@@H]6COCCN6C(=O)[C@@H](NC(=O)OC)C(C)C)[nH]c5c4)ccc3c2)[nH]1)C(C)C` [compound 222], the EC50 was less than 1 nM.
Under `COC(=O)N[C@H](C(=O)N1CCOC[C@H]1c1nc2ccc(-c3ccc4cc(-c5cnc([C@@H]6CCCN6C(=O)[C@@H](NC(=O)OC)C6CCOCC6)[nH]5)ccc4c3)cc2[nH]1)C(C)C` [compound 223] stands less than 1 nM; under `COC(=O)N[C@H](C(=O)N1CCOC[C@H]1c1ncc(-c2ccc3cc(-c4ccc5nc([C@@H]6COCCN6C(=O)[C@@H](NC(=O)OC)C(C)C)[nH]c5c4)ccc3c2)[nH]1)C(C)C` [compound 224], less than 1 nM; under `CC[C@@H](C)[C@H](NC(=O)OC)C(=O)N1CCC[C@H]1c1ncc(-c2ccc3cc(-c4ccc5nc([C@@H]6CCCN6C(=O)[C@@H](NC(=O)OC)[C@H](C)CC)[nH]c5c4)ccc3c2)[nH]1` [compound 225], less than 1 nM.
Consider `CC[C@H](NC(=O)OC)C(=O)N1CCC[C@H]1c1ncc(-c2ccc3cc(-c4ccc5nc([C@@H]6CCCN6C(=O)[C@H](CC)NC(=O)OC)[nH]c5c4)ccc3c2)[nH]1` [compound 226], for which the EC50 is less than 1 nM.
On to `CCC(CC)[C@H](NC(=O)OC)C(=O)N1CCC[C@H]1c1ncc(-c2ccc3cc(-c4ccc5nc([C@@H]6CCCN6C(=O)[C@@H](NC(=O)OC)C(CC)CC)[nH]c5c4)ccc3c2)[nH]1` [compound 227], for which the EC50 is less than 1 nM.
Consider `COC(=O)N[C@H](C(=O)N1CCC[C@H]1c1ncc(-c2ccc3cc(-c4ccc5nc([C@@H]6CCCN6C(=O)[C@@H](NC(=O)OC)C6CC6)[nH]c5c4)ccc3c2)[nH]1)C1CC1` [compound 228], for which the EC50 is less than 1 nM.
Under `COC(=O)N[C@H](C(=O)N1CCC[C@H]1c1ncc(-c2ccc(-c3nc4ccc(-c5cnc([C@@H]6CCCN6C(=O)[C@@H](NC(=O)OC)C(C)C)[nH]5)cc4s3)cc2)[nH]1)C(C)C` [compound 229] stands less than 1 nM; under `COC(=O)N[C@@H](C(=O)N1CCC[C@H]1c1ncc(-c2ccc(-c3nc4ccc(-c5cnc([C@@H]6CCCN6C(=O)[C@H](NC(=O)OC)c6ccccc6)[nH]5)cc4s3)cc2)[nH]1)c1ccccc1` [compound 230], less than 1 nM.
In the case of `COC(=O)N[C@H](C(=O)N1CCC[C@H]1c1ncc(-c2ccc(-c3nc4ccc(-c5cnc([C@@H]6CCCN6C(=O)[C@@H](NC(=O)OC)C(C)C)[nH]5)cc4n3C)cc2)[nH]1)C(C)C` [compound 231], the EC50 is less than 1 nM.
The figure for `COC(=O)N[C@H](C(=O)N1CCC[C@H]1c1ncc(-c2ccc(-c3nc4cc(-c5cnc([C@@H]6CCCN6C(=O)[C@@H](NC(=O)OC)C(C)C)[nH]5)ccc4n3C)cc2)[nH]1)C(C)C` [compound 232] is less than 1 nM.
Regarding `COC(=O)N[C@@H](C(=O)N1CCC[C@H]1c1ncc(-c2ccc(-c3nc4cc(-c5cnc([C@@H]6CCCN6C(=O)[C@H](NC(=O)OC)c6ccccc6)[nH]5)ccc4n3C)cc2)[nH]1)c1ccccc1` [compound 233], the EC50 is less than 1 nM.
With `COC(=O)N[C@H](C(=O)N1CCC[C@H]1c1ncc(-c2ccc(-c3nc4ccc(-c5cnc([C@@H]6CCCN6C(=O)[C@@H](NC(=O)OC)C(C)C)[nH]5)cc4o3)cc2)[nH]1)C(C)C` [compound 234], the EC50 is less than 1 nM.
`COC(=O)N[C@@H](C(=O)N1CCC[C@H]1c1ncc(-c2ccc(-c3nc4ccc(-c5cnc([C@@H]6CCCN6C(=O)[C@H](NC(=O)OC)c6ccccc6)[nH]5)cc4o3)cc2)[nH]1)c1ccccc1` [compound 235]: the EC50 was less than 1 nM.
Consider `COC(=O)N[C@H](C(=O)N1CCC[C@H]1c1ncc(-c2ccc(-c3nc4cc(-c5cnc([C@@H]6CCCN6C(=O)[C@@H](NC(=O)OC)C(C)C)[nH]5)ccc4o3)cc2)[nH]1)C(C)C` [compound 236], for which the EC50 is less than 1 nM.
On to `COC(=O)N[C@@H](C(=O)N1CCC[C@H]1c1ncc(-c2ccc(-c3nc4cc(-c5cnc([C@@H]6CCCN6C(=O)[C@H](NC(=O)OC)c6ccccc6)[nH]5)ccc4o3)cc2)[nH]1)c1ccccc1` [compound 237], for which the EC50 is less than 1 nM.
On to `COC(=O)N[C@H](C(=O)N1CCC[C@H]1c1ncc(-c2ccc(-c3nc4cc(-c5cnc([C@@H]6CCCN6C(=O)[C@@H](NC(=O)OC)[C@@H](C)OC)[nH]5)ccc4o3)cc2)[nH]1)[C@@H](C)OC` [compound 238], for which the EC50 is less than 1 nM.
